Read-outs that look alike come from different tables or passages of the source.
Tests used:
[1] = test system: experimental autoimmune encephalomyelitis (EAE) rats; experiment: Rat experimental autoimmune encephalomyelitis (EAE) model, preventive treatment; type: in vivo
Procedure: A further study was carried out to study the impact of Lp-PLA2 inhibitors on modulating M1/M2 imbalance. In this study, rats were induced to develop experimental autoimmune encephalomyelitis (EAE) by immunization with myelin basic protein (MBP) antigen and treated with a known Lp-PLA2 inhibitor: 5-((9-Methoxy-4-oxo-6,7-dihydro-4H-pyrimido[6,1-a]isoquinolin-2-yl)oxy)-2-(3-(trifluoromethyl)phenoxy)benzonitrile (See PCT application no. PCT/CN2011/001597). In this preventive treatment model, the compound was administered at day 0 (day of immunization) and continued to administer until day 22. The study lasted for 25 days. Rats were subsequently monitored for symptoms of EAE. Rats were immunized with MBP to develop EAE and symptoms were monitored daily. Plasma Lp-PLA2 activity, OxLDL, and LysoPC concentration were determined at different time points through the course of EAE.

[2] = test system: proinflammatory (M1) and anti-inflammatory (M2) markers in splenic and CNS infiltrating macrophages; experiment: Ex vivo analysis of M1 and M2 markers in macrophages of EAE rats by realtime PCR; parameters: species or system rat; conditions: spleen harvested day 13 post MBP-immunization
Procedure: Ex vivo analysis of proinflammatory (M1) and anti-inflammatory (M2) markers in control and compound treated EAE rats. Splenic macrophages were harvested at day 13 post MBP-immunization and assayed for expression of a variety of markers by realtime PCR. CNS infiltrating cells were harvested and macrophages were analyzed for expression of M1 and M2 markers by realtime PCR.

[3] = biological target: T1, recombinant human Lp-PLA2 (Homo sapiens, UniProt Q13093); experiment: Recombinant human Lp-PLA2 assay (rhLp-PLA2, PED6 assay); type: biochemical; conditions: upper limit for pIC50 in this assay is 9.3
T1 sequence (Q13093 22-441): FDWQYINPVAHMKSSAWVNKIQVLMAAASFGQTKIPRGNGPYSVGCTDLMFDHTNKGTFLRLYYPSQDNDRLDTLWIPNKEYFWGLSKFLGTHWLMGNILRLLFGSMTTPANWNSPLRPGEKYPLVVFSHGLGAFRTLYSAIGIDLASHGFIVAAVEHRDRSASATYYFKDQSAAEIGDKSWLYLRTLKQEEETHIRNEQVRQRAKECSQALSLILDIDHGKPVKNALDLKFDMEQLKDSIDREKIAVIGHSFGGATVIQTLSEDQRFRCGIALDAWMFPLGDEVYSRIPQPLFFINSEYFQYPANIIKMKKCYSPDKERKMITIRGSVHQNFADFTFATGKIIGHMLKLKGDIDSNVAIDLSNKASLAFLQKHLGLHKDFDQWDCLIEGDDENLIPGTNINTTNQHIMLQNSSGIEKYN
Procedure, shortened: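 Enzyme at 4 nM (or 110 pM) in 50 mM HEPES pH 7.4, 150 mM NaCl, 1 mM CHAPS, preincubated with compound 30 min. PED6 substrate ([…] 5 μM, as printed) then added and reaction run 20 min at room temperature, protected from light. Fluorescence read at ex 480/em 540; pIC50 from curve fitting.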

Lp-PLA2 in human plasma = biological target: T2, Lp-PLA2 in human plasma (Homo sapiens, UniProt Q13093); experiment: Lp-PLA2 human plasma assay (Thio-PAF assay); type: biochemical; conditions: pooled human plasma; read-out: pIC50 values in the thio-PAF assay (converted)
T2 construct: from tissue; host or cells: pooled human plasma
T2 sequence (Q13093 22-441): T1 sequence (Q13093 22-441)
Procedure, shortened: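 Pooled human plasma preincubated 30 min with compounds, then given substrate mix of 2.5 mM 2-thio-PAF, […] and 3.2 mM NEM (concentrations in substrate solution) in pH 7.4 HEPES/NaCl/CHAPS buffer. Quenched with TFA after 2 min; CPM-thiol fluorescence read at ex 380/em 485 to give pIC50.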

[4] = read-out: pIC50 values in the PED6 assay (converted)
[5] = Table 1, read-out: rhLp-PLA2 (PED6 assay) (pIC50) (converted)

| Structure (SMILES) | IC50 [3, 4] [nM] | IC50 (Lp-PLA2 in human plasma) [nM] | also measured |
| --- | --- | --- | --- |
| COc1ccc2c(c1)CCn1c-2cc(Oc2ccc(Oc3cccc(C(F)(F)F)c3)c(C#N)c2)nc1=O [5-((9-Methoxy-4-oxo-6,7-dihydro-4H-pyrimido[6,1-a]isoquinolin-2-yl)oxy)-2-(3-(trifluoromethyl)phenoxy)benzonitrile] | – | – | LysoPC levels ([1]; rat EAE plasma): decreased; plasma Lp-PLA2 activity ([1]; rat EAE plasma): decreased Lp-PLA2 activity; clinical disease ([1]; rat EAE, MBP immunization, compound administered day 0 to day 22): reduction in clinical disease; M1 markers expression [2]: decrease in M1 markers; M2 markers expression [2]: increase in M2 markers |
| CN1CCCn2c1cc(OCCc1ccc(Oc3ccc(Cl)c(F)c3)c(F)c1)nc2=O [Example 102, 8-(4-(4-chloro-3-fluorophenoxy)-3-fluorophenethoxy)-1-methyl-3,4-dihydro-1H-pyrimido[1,6-a]pyrimidin-6(2H)-one] | ≤ 1 | ≤ 1000 | – |
| Cc1ccc(Oc2ccc(COc3cc4n(c(=O)n3)CCCN4C)cc2C#N)cn1 [Example 56, 5-(((1-methyl-6-oxo-2,3,4,6-tetrahydro-1H-pyrimido[1,6-a]pyrimidin-8-yl)oxy)methyl)-2-((6-methylpyridin-3-yl)oxy)benzonitrile] | ≤ 1 | ≤ 100 | – |
| CN1CCCn2c1cc(OCCc1ccc(Oc3ccc(Cl)c(C(F)(F)F)c3)cc1)nc2=O [Example 55, 8-(4-(4-chloro-3-(trifluoromethyl)phenoxy)phenethoxy)-1-methyl-3,4-dihydro-1H-pyrimido[1,6-a]pyrimidin-6(2H)-one] | ≤ 1 | ≤ 100 | – |
| CN1CCCn2c1cc(OCc1ccc(Oc3ccc(Cl)c(Cl)c3)cc1)nc2=O [Example 7, 8-((4-(3,4-dichlorophenoxy)benzyl)oxy)-1-methyl-3,4-dihydro-1H-pyrimido[1,6-a]pyrimidin-6(2H)-one] | ≤ 1 | ≤ 100 | IC50 [3, 5]: 0.794 nM |
| CN1CCCn2c1cc(OCc1ccc(Oc3ccc(F)c(Cl)c3)c(C#N)c1)nc2=O [Example 84, 2-(3-chloro-4-fluorophenoxy)-5-(((1-methyl-6-oxo-2,3,4,6-tetrahydro-1H-pyrimido[1,6-a]pyrimidin-8-yl)oxy)methyl)benzonitrile] | ≤ 1 | ≤ 100 | – |
| CN1CCCn2c1cc(OCc1ccc(Oc3cccc(C#N)c3)c(F)c1)nc2=O [Example 85, 3-(2-fluoro-4-(((1-methyl-6-oxo-2,3,4,6-tetrahydro-1H-pyrimido[1,6-a]pyrimidin-8-yl)oxy)methyl)phenoxy)benzonitrile] | ≤ 10 | ≤ 1000 | – |
| CC(C)N1CCCn2c1cc(OCc1ccc(F)c(F)c1)nc2=O [Example 40, 8-((3,4-difluorobenzyl)oxy)-1-isopropyl-3,4-dihydro-1H-pyrimido[1,6-a]pyrimidin-6(2H)-one] | ≤ 10 | ≤ 100 | IC50 [3, 5]: 10 nM |
| O=c1nc(OCc2ccc(Oc3ccc(F)c(F)c3)c(F)c2)cc2n1CCCN2 [Example 117, 8-((4-(3,4-difluorophenoxy)-3-fluorobenzyl)oxy)-3,4-dihydro-1H-pyrimido[1,6-a]pyrimidin-6(2H)-one] | ≤ 1 | ≤ 100 | – |
| CN1CCCn2c1cc(OCc1ccc(Oc3cccc(F)c3)c(C#N)c1)nc2=O [Example 80, 2-(3-fluorophenoxy)-5-(((1-methyl-6-oxo-2,3,4,6-tetrahydro-1H-pyrimido[6-a]pyrimidin-8-yl)oxy)methyl)benzonitrile] | ≤ 1 | ≤ 100 | – |
| CN1CCCn2c1cc(OCCc1ccc(Oc3ccc(Cl)c(F)c3)cc1)nc2=O [Example 103, 8-(4-(4-chloro-3-fluorophenoxy)phenethoxy)-1-methyl-3,4-dihydro-1H-pyrimido[1,6-a]pyrimidin-6(2H)-one] | ≤ 10 | ≤ 1000 | – |
| O=c1nc(OCc2ccc(Oc3cccc(F)c3)c(F)c2)cc2n1CCCN2 [Example 116, 8-((3-fluoro-4-(3-fluorophenoxy)benzyl)oxy)-3,4-dihydro-1H-pyrimido[1,6-a]pyrimidin-6(2H)-one] | ≤ 1 | ≤ 100 | – |

Now from value to compound, other results behind:

| IC50 [3, 4] [nM] | IC50 (Lp-PLA2 in human plasma) [nM] | Structure (SMILES) | also measured |
| --- | --- | --- | --- |
| ≤ 10 | ≤ 100 | CN1CCCn2c1cc(OCc1ccc(Oc3ccc(F)cc3)c(C#N)c1)nc2=O [Example 30, 2-(4-fluorophenoxy)-5-(((1-methyl-6-oxo-2,3,4,6-tetrahydro-1H-pyrimido[1,6-a]pyrimidin-8-yl)oxy)methyl)benzonitrile] | – |
| ≤ 10 | ≤ 1000 | CN1CCCn2c1cc(OCc1ccc(Oc3ccc(F)cc3)c(F)c1)nc2=O [Example 74, 8-((3-fluoro-4-(4-fluorophenoxy)benzyl)oxy)-1-methyl-3,4-dihydro-1H-pyrimido[1,6-a]pyrimidin-6(2H)-one] | – |
| ≤ 10 | ≤ 1000 | CN1CCCn2c1cc(OCc1ccc(Oc3cccc(F)c3)c(F)c1)nc2=O [Example 25, 8-((3-fluoro-4-(3-fluorophenoxy)benzyl)oxy)-1-methyl-3,4-dihydro-1H-pyrimido[1,6-a]pyrimidin-6(2H)-one] | – |
| ≤ 10 | ≤ 1000 | CN1CCCn2c1cc(OCc1cc(F)c(Oc3ccc(F)cc3)c(F)c1)nc2=O [Example 87, 8-((3,5-difluoro-4-(4-fluorophenoxy)benzyl)oxy)-1-methyl-3,4-dihydro-1H-pyrimido[1,6-a]pyrimidin-6(2H)-one] | – |
| ≤ 10 | ≤ 100 | CN1CCCn2c1cc(OCc1ccc(Oc3ccc(F)c(F)c3)c(C#N)c1)nc2=O [Example 34, 2-(3,4-difluorophenoxy)-5-(((1-methyl-6-oxo-2,3,4,6-tetrahydro-1H-pyrimido[1,6-a]pyrimidin-8-yl)oxy)methyl)benzonitrile] | – |
| ≤ 1 | ≤ 100 | CN1CCCn2c1cc(OCc1cc(F)c(Oc3ccc(C(F)(F)F)nc3)c(F)c1)nc2=O [Example 3, 8-((3,5-difluoro-4-((6-(trifluoromethyl)pyridin-3-yl)oxy)benzyl)oxy)-1-methyl-3,4-dihydro-1H-pyrimido[1,6-a]pyrimidin-6(2H)-one] | IC50 [3, 5]: 1 nM |

Source: US20130030012A1, “COMPOUNDS” (Glaxo Group Limited, priority 2011, published 2013)
